Here are results for one molecule from patent publication US20260137662A1, “CD11B AGONISTS FOR TREATMENT OF AUTOIMMUNE DISEASE” (Rush University Medical Center, priority 2022, published 2026).

Molecules are shown by their SMILES.

Test [1] concerns BMDMs from mice with global deletion of CD11b (KO). Description: Biomarker secretion from IMQ-treated bone marrow derived macrophages of CD11b KO mice. The test is classed as cell-based. To be noted: CD11b KO cells, IMQ (20 ug/mL) and LA1 (20 uM) co-treatment, 4 hours. On the procedure:
FIG. 7A illustrates levels of biomarker IL-6 secretion in bone marrow derived macrophages (BMDMs) from C57BL/6 wild type (WT) mice, mice with global deletion of CD11b (KO), or C57BL/6 mice expressing CD11b with a point mutation (KI), the macrophages treated for 4 hours with vehicle DMSO (UT), LA1 (20 uM), IMQ (20 ug/mL), or IMQ and LA1 co-treatment. Bars show mean with SD (N=3) (*P<0.05, **P<0.01, ***P<0.001, ****P<0.0001).
FIG. 7B illustrates levels of biomarker IL-1b secretion in bone marrow derived macrophages (BMDMs) from C57BL/6 wild type (WT) mice, mice with global deletion of CD11b (KO), or C57BL/6 mice expressing CD11b with a point mutation (KI), the macrophages treated for 4 hours with vehicle DMSO (UT), LA1 (20 uM), IMQ (20 ug/mL), or IMQ and LA1 co-treatment. Bars show mean with SD (N=3) (*P<0.05, **P<0.01, ***P<0.001, ****P<0.0001).
FIG. 7C illustrates levels of biomarker suPAR secretion in bone marrow derived macrophages (BMDMs) from C57BL/6 wild type (WT) mice, mice with global deletion of CD11b (KO), or C57BL/6 mice expressing CD11b with a point mutation (KI), the macrophages treated for 4 hours with vehicle DMSO (UT), LA1 (20 uM), IMQ (20 ug/mL), or IMQ and LA1 co-treatment. Bars show mean with SD (N=3) (*P<0.05, **P<0.01, ***P<0.001, ****P<0.0001).
FIG. 7D illustrates levels of biomarker IFNb secretion in bone marrow derived macrophages (BMDMs) from C57BL/6 wild type (WT) mice, mice with global deletion of CD11b (KO), or C57BL/6 mice expressing CD11b with a point mutation (KI), the macrophages treated for 4 hours with vehicle DMSO (UT), LA1 (20 uM), IMQ (20 ug/mL), or IMQ and LA1 co-treatment. Bars show mean with SD (N=3) (*P<0.05, **P<0.01, ***P<0.001, ****P<0.0001).
Bone marrow derived macrophages (BMDMs) from C57BL/6 wild type mice (WT), mice with global deletion of CD11b (KO), and C57BL/6 mice expressing CD11b with a point mutation (KI), as described previously (Martinez et al., 2020) were used to evaluate the effect of pharmacologic activation of CD11b by LA1 or genetic activation of CD11b on TLR-pathway dependent biomarkers. BMDMs from WT, KO, and KI mice were left untreated, treated with LA1, treated with IMQ, or co-treated with LA1 and IMQ and levels of biomarkers IL-1b, suPAR, IL-6 and IFN-b were measured 4 hours after treatment.

The subject of test [2] is RAW 264.7 murine macrophage cell line. The test is described as follows: suPAR and TNFa secretion from RAW 264.7 cells treated with LN patient sera (ELISA). Type of test: cell-based. To be noted: co-treatment LN sera (0.5%) and LA1 (20 uM), 4 hours, vs LN sera alone. On the procedure:
FIG. 1A illustrates levels of biomarker suPAR secretion from RAW 264.7 cells after 4 hours of treatment with cell culture medium (UT), LA1 (20 uM), LN patient sera (0.5%) in culture medium ([…]), or co-treatment with LN sera (0.5%) and LA1 (20 uM). […] FIG. 1B illustrates levels of biomarker TNFa secretion from RAW 264.7 cells after 4 hours of treatment with cell culture medium (UT), LA1 (20 uM), LN patient sera (0.5%) in culture medium ([…]), or co-treatment with LN sera (0.5%) and LA1 (20 uM). […] Myeloid cells from RAW 264.7 murine macrophage cell line were used to measure the concentration of pro-inflammatory biomarkers, soluble uPAR (suPAR) and TNFa, in the presence of lupus nephritis (LN) sera and LA1. The levels of pro-inflammatory biomarkers were measured in the supernatant of untreated cells, cells treated with LA1, cells treated with sera from patients with lupus nephritis (LN), and cells co-treated with LN sera and LA1. The concentrations of various pro-inflammatory biomarkers in cell supernatant were measured 4 hours after treatment using ELISA.
(ELISA stands for enzyme-linked immunosorbent assay.)

In another test the test system is TLR signaling pathways. Description: Relative gene expression in RAW cells treated with Poly(I:C). The test is classed as cell-based, murine. The conditions noted are these: Poly(I:C) (0.1 ug/mL) and LA1 (20 uM) co-treatment, 4 hours. On the procedure:
FIG. 2C illustrates relative gene expression of biomarker uPAR in RAW cells after 4 hours of treatment with Poly(I:C) (0.1 ug/mL), LA1 (20 uM), and Poly(I:C) […] LA1 co-treatment.
FIG. 2D illustrates relative gene expression biomarker IL-1b in RAW cells after 4 hours of treatment with Poly(I:C) (0.1 ug/mL), LA1 (20 uM), or Poly(I:C) and LA1 co-treatment.
The effect of LA1 on TLR-stimulation dependent pro-inflammatory pathways was studied by stimulating myeloid cells with different TLR-stimulants (lipopolysaccharide (LPS), Pam2CSK 4, imiquimod (IMQ)) or with phorbol 12-myristate 13-acetate (PMA) and co-treating with LA1. The levels of suPAR (pg/mL) and TNFa (pg/mL) in cell supernatant were measured 4 hours after treatment using ELISA. […] Relative gene expression was also assessed in myeloid cells treated with Poly(I:C), a known toll-like receptor (TLR) agonist, and co-treated with LA1.

Another test relates to TLR4 mediated pathways. Description: Relative gene expression in myeloid cells stimulated with LPS. The test is classed as cell-based. To be noted: LPS (50ng/ml) and LA1 (20 uM) co-treatment, 4 hour. On the procedure:
FIG. 4A illustrates the relative gene expression of biomarker IL-1bin myeloid cells after 4 hour of treatment with vehicle DMSO (UT), LA1 (20 uM), LPS (50ng/ml), or LPS and LA1 co-treatment.
FIG. 4B illustrates the relative gene expression of biomarker IL-18 in myeloid cells after 4 hour of treatment with vehicle DMSO (UT), LA1 (20 uM), LPS (50ng/ml), or LPS and LA1 co-treatment.
FIG. 4C illustrates the relative gene expression of biomarker uPAR in myeloid cells after 4 hour of treatment with vehicle DMSO (UT), LA1 (20 uM), LPS (50ng/ml), or LPS and LA1 co-treatment.
FIG. 4D illustrates the relative gene expression of biomarker IL-6 in myeloid cells after 4 hour of treatment with vehicle DMSO (UT), LA1 (20 uM), LPS (50ng/ml), or LPS and LA1 co-treatment.
The impact of CD11b activation by LA1 on TLR4 mediated pathways was similarly assessed by stimulating myeloid cells with LPS, a known TLR4 stimulant, and co-treating with LA1.

Take `O=C(O)c1ccc(-c2ccc(/C=C3\SC(=S)N(Cc4ccccc4)C3=O)o2)cc1` [LA1, (Z)-4-(5-((3-benzyl-4-oxo-2-thioxothiazolidin-5-ylidene)methyl)furan-2-yl)benzoic acid]: in test [1], the “level of IFN-b in cell supernatant” value is given as “no effect”, the “level of IL-1b in cell supernatant” value is recorded as “no effect”, the “level of IL-6 in cell supernatant” value was “no effect” and the “level of suPAR in cell supernatant” value is “no effect”. Further, in test [2], the “level of TNFa in cell supernatant” value is “significantly reduced” and the “level of soluble uPAR (suPAR) in cell supernatant” value is recorded as “significantly reduced”. In the test on TLR signaling pathways, the “relative gene expression of biomarker IL-1b” value is “significantly reduced” and the “relative gene expression of biomarker uPAR” value is reported as “significantly reduced”. In addition, in the test with TLR4 mediated pathways, the “expression of biomarker IL-1b” value is “significantly decreased”, the “expression of biomarker IL-6” value was “significantly decreased”, the “expression of biomarker IL-18” value is “significantly decreased” and the “expression of biomarker uPAR” value is reported as “significantly decreased”.
